{"source": "patent US20210275449A1", "about": "“Inhalable Formulation of a Solution Containing Glycopyrronium Bromide” (priority 2020, published 2021)", "key": {"[1]": {"assay": "Aerodynamic particle size distribution by Andersen Cascade Impactor (ACI)", "type": "physicochemical", "settings": "Samples I-V, flow rate 28.3 L/min", "procedure": "An Andersen Cascade Impactor instrument (ACI) was used to determine the particle size distribution of Samples I-V. The test was conducted at a flow rate of 28.3 L/min. Deposition of the active substance on each ACI plate was confirmed by high pressure liquid chromatography. The particle size was expressed in terms of mass median aerodynamic diameter (MMAD) and Geometric Standard Deviation (GSD)."}, "[2]": {"assay": "Aerodynamic particle size distribution of Sample VI by Next Generation Impactor (NGI), soft mist inhaler", "type": "physicochemical", "settings": "NGI 30 L/minute, RH 90±2%", "procedure": "The aerodynamic particle size distribution was determined using a Next Generation Impactor instrument (NGI). The soft mist inhaler was held close to the NGI inlet until no aerosol was visible. The flow rate of the NGI was set to 30 L/minute and was operated under ambient temperature and a relative humidity (RH) of 90±2%.\nSample VI was discharged into the NGI. Fractions of the dose were deposited at different stages of the NGI, in accordance with the particle size of the fraction. Each fraction was washed from the stage and analyzed using HPLC.\nThe particle size distribution was expressed in terms of mass median aerodynamic diameter (MMAD) and geometric standard deviation (GSD)."}}, "data": [{"substance": "(3RS)-3-[(2 SR)-(2-cyclopentyl-2-hydroxy-2-penylacetyl)oxy]-1,1-dimethlypyrrolidinium bromide [Glycopyrronium bromide]", "values": [{"measurement": "GSD", "setting": "[1]", "value": 1.7}, {"measurement": "MMAD", "setting": "[1]", "value": 4.4, "unit": "μm"}, {"measurement": "Fine Particle Fraction (FPF)", "setting": "[2]", "value": 70.45, "unit": "%"}, {"measurement": "Fine particle dose (FPD)", "setting": "[2]", "value": 8.44, "unit": "µg"}, {"measurement": "GSD", "setting": "[2]", "value": "less than 2"}, {"measurement": "MMAD", "setting": "[2]", "value": "less than 6 μm"}, {"measurement": "GSD", "setting": "[2]; listed as Glycopyrrolate", "value": 1.77}, {"measurement": "MMAD", "setting": "[2]; listed as Glycopyrrolate", "value": 4.05, "unit": "μm"}]}]}
